Data published in ChEMBL document CHEMBL1764952, “A novel application of DDQ as electrophile in the Nenitzescu reaction” (Bioorg Med Chem, 2011).

Columns and labels:
HOP-92 = test: Antitumor activity against human HOP92 cells assessed as growth inhibition; format: functional
[1] = target: T1, Casein kinase II (Homo sapiens) (UniProt P67870+P68400+P19784); test: Inhibition of human recombinant CK2 using RRRDDDSDDD-EDANS peptide substrate at 10 µM by capillary electrophoresis analysis
Casein kinase II = Casein kinase II (Homo sapiens, UniProt P19784+P67870+P68400); test: Inhibition of human recombinant CK2 using RRRDDDSDDD-EDANS peptide substrate by capillary electrophoresis analysis; format: protein-complex assay
Sequence of Casein kinase II (P67870 whole entry): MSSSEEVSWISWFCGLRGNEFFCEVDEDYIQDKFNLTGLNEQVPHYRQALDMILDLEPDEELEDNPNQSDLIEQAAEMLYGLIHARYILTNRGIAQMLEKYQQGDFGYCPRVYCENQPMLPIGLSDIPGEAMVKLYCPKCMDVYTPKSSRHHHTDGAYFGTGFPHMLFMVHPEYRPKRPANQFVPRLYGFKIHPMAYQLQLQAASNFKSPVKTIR
Sequence of Casein kinase II (P68400 whole entry): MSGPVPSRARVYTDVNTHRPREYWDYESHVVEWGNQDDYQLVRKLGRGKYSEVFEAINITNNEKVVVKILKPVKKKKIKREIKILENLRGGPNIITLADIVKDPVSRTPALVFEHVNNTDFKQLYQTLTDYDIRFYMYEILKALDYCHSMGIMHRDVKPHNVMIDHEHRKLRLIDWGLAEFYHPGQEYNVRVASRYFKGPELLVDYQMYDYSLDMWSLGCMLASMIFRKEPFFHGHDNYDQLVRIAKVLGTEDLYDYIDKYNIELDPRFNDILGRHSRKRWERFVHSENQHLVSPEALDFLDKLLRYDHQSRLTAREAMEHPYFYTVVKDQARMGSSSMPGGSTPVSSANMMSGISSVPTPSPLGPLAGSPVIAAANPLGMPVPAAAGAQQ
Sequence of Casein kinase II (P19784 whole entry): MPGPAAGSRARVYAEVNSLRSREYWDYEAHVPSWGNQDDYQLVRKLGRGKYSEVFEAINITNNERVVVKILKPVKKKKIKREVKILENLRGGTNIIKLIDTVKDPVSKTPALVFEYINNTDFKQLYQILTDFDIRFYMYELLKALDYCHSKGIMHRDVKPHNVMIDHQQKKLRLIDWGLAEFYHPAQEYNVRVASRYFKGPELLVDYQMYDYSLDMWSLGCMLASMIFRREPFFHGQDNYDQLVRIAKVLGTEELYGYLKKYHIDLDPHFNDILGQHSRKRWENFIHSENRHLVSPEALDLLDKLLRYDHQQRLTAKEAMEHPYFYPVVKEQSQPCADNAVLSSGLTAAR

DU-145 = test: Antitumor activity against human DU145 cells assessed as growth inhibition; format: functional
Homo sapiens = species: Homo sapiens; test: Antitumor activity against human lymphoma assessed as growth inhibition at 27 uM; format: functional
[2] = Antitumor activity against human NCI-ADR-RES cells assessed as growth inhibition; format: functional
OVCAR-5 = test: Antitumor activity against human OVCAR5 cells assessed as growth inhibition; format: functional
[3] = target: T1, Casein kinase II (Homo sapiens); test: Inhibition of human recombinant CK2 using RRRDDDSDDD-EDANS peptide substrate at […] by capillary electrophoresis analysis; format: protein-complex assay

CCOC(=O)C1=C(c2ccccc2)N(c2ccc(OC)cc2)C(=N)C12C(=O)C(Cl)=C(Cl)C(O)=C2C#N (centres undefined)
GI50 (HOP-92): 550 nM

CCOC(=O)c1oc2c(Cl)c(Cl)c(OC(C)=O)c(C#N)c2c1N
inhibition [1]: 69%
IC50 (Casein kinase II): 2400 nM

CCOC(=O)C1=C(C)N(c2ccc(Cl)cc2)C(=N)C12C(=O)C(Cl)=C(Cl)C(O)=C2C#N (centres undefined)
GI50 (DU-145): 339 nM

CC(C)=CC(=O)c1coc2ccc(O)cc12
inhibition [1]: 39%

CC(C)=CC(=O)c1oc2c(Cl)c(Cl)c(O)c(C#N)c2c1N
inhibition [1]: > 96%

CCOC(=O)C1=C(C)N(c2ccc(F)cc2F)C(=N)C12C(=O)C(Cl)=C(Cl)C(O)=C2C#N (centres undefined)
GI50 (HOP-92): 1780 nM

CCOC(=O)c1oc2ccc(OC(C)=O)c(CNC(C)=O)c2c1NC(C)=O
inhibition [1]: 0%

CC(=O)Oc1c(Cl)c(Cl)c2oc(C(=O)C=C(C)C)c(N)c2c1C#N
inhibition [1]: 93%
IC50 (Casein kinase II): 200 nM
growth inhibition (GI) (Homo sapiens): > 99%

CCOC(=O)C1=C(C)N(Cc2ccc(Cl)cc2Cl)C(=N)C12C(=O)C(Cl)=C(Cl)C(O)=C2C#N (centres undefined)
GI50 [2]: 191 nM
GI50 (OVCAR-5): 2690 nM

CCOC(=O)C1=C(C)N(Cc2ccc(Cl)cc2Cl)/C(=N\C(C)=O)C12C(=O)C(Cl)=C(Cl)C(OC(C)=O)=C2C#N (centres undefined)
inhibition [3]: 0%
